Values after ≈ are worked out from the molar mass of the structure shown. Like-named read-outs stand apart in the source and are kept apart here. Starred links: 1 amine or outer side, 2 acyl side, 3 side chain; linkers in the order of their positions; H or OH if unused. Positions of bridges follow the written chain, without caps; N, C: chain ends. Non-standard residues stand in square brackets, D forms with d. Residues, ends and D or L forms follow the SMILES beside them. *: point of attachment. Orn(4R-OH,5R-OH) = O=C([C@H](C[C@@H](O)[C@@H](O)N[*:3])N[*:1])[*:2]; hTyr(3S-OH,4S-OH) = N[C@H](C(=O)O)[C@H](O)[C@@H](O)c1ccc(O)cc1; Pro(3S-OH,4S-Me) = C[C@H]1CN[C@H](C(=O)O)[C@H]1O; Benzoyl(4-octyloxy) = CCCCCCCCOc1ccc(C(=O)*)cc1; X2 = CCCCCCCCCCCCCCS(=O)(=O)c1ccc(C(=O)*)cc1; X5 = CCCCCCCCCCCCS(=O)(=O)c1ccc(C(=O)*)cc1; X4 = CCCCCCCCCCS(=O)(=O)c1ccc(C(=O)*)cc1; X3 = CCCCCCCCCCCCCCSc1ccc(C(=O)*)cc1; X1 = CCCCCCCCCCCCSc1ccc(C(=O)*)cc1; Hyp = O=C(O)[C@@H]1C[C@@H](O)CN1; X8 = CCCCCCCCCOc1ccc(C(=O)*)cc1
Experiments:
Candida albicans A-26 [1] = test: Agar dilution method, MIC; format: cell-based
Experimental: (§1) Tables 10 and 11 give the results of the testing in vitro of the compounds of Examples 3 and 4 by agar-plate disc-diffusion methods. In Table 10 activity is measured by the size (diameter in mm) of the observed zone of inhibition of the microorganism produced by the test compound. In Table 11, activity is measured by the minimal inhibitory concentration (MIC) of the substance (μg/disc) required to inhibit growth of the test organism. Table 12 gives the results of the testing in vitro of the p-(n-octyloxy)benzoyl derivative of A30912A nucleus [Formula III, R^1 is p-(n-octyloxy)benzoyl] against five strains of Candida albicans by the agar dilution method. In Table 12 activity is measured by the minimal inhibitory concentration (MIC) of the substance (μg/ml) required to inhibit the test organism.

Candida albicans SBH16 = test: Agar dilution method, MIC; format: cell-based
Experimental: as §1

Candida albicans SBH28 = test: Agar dilution method, MIC; format: cell-based
Experimental: as §1

Candida albicans SBH29 = test: Agar dilution method, MIC; format: cell-based
Experimental: as §1

Candida albicans SBH31 = test: Agar dilution method, MIC; format: cell-based
Experimental: as §1

pathogenic fungi = test: Antifungal activity, standard biological test procedures; format: cell-based; details: cyclic nucleus lacking the linoleoyl side chain
Text: The compounds of Formula III inhibit the growth of pathogenic fungi as evidenced by standard biological test procedures. The compounds are useful, therefore, for controlling the growth of fungi on environmental surfaces (as an antiseptic) or in treating infections caused by fungi. […] Thus, the compounds are particularly useful in treating infections caused by strains of C. albicans (candidosis). The compounds of Formula III have also shown activity in vitro in agar-plate disc diffusion tests against Trichophyton mentagrophytes, a dermatophytic organism. Activity has also been found in in vitro agar-plate disc-diffusion tests against Saccharomyces pastorianus, and Neurospora crassa. Certain compounds (as shown in Example 6, Table 9) give significant blood levels upon oral administration in mice.

[2] = tested on: Saccharomyces pastoranius X-52; test: Agar plate disc diffusion test, zone of inhibition; format: cell-based, Saccharomyces pastorianus
Experimental: as §1
(§2) ^(a) Compounds were tested as suspension in methanol. The compounds
(§3) were tested at a concentration of 1 mg/ml. by dipping a 7mm disc into the
(§4) suspension and placing it on the agar surface. Incubation: 24-48 hours at
(§5) *Measurable zone of inhibition with regrowth of organism around disc.

Candida albicans A-26 [3] = test: Agar plate disc diffusion test, zone of inhibition; format: cell-based; details: 1 mg/ml suspension in methanol, 7mm disc; 24-48 hours at 25-37° C.
Experimental: as §1, §2, §3, §4, §5

Neurospora crassa 846 = test: Agar plate disc diffusion test, zone of inhibition; format: cell-based
Experimental: as §1, §2, §3, §4, §5

[4] = tested on: Trichophyton mentagraphytes A-23; test: Agar plate disc diffusion test, zone of inhibition; format: cell-based, Trichophyton mentagrophytes
Experimental: as §1, §2, §3, §4, §5

[5] = Blood levels after oral administration in mice; details: mouse, 416 mg/kg
Experimental: (§6) In this test, mice are gavaged with a dose of 416 mg/kg of the test compound suspended in 33% PEG 400-water. At time intervals, blood samples are taken from the orbital sinus and are assayed for antibiotic activity as follows: A 7 mm. disc containing 20 μl of whole blood is placed on agar seeded with Aspergillus montevidensis A35137. After 40 hours incubation at 30° C. zones of inhibition from the blood samples are compared to a standard obtained from the test compound, and the amount of compound in the blood sample is calculated.

in vivo = details: mouse, po, 416 mg/kg
Experimental: as §6

[6] = Toxicity on intravenous administration to a dog; format: in vivo; details: 100 mg/kg per day for five days
[7] = X52, 1 mg/ml suspension in methanol, 7mm disc, 24-48 hours at 25-37° C., read-out: Size of Zone of Inhibition
[8] = Neurospora crassa, 846, 1 mg/ml suspension in methanol, 7mm disc, 24-48 hours at 25-37° C., read-out: Size of Zone of Inhibition
[9] = A23, 1 mg/ml suspension in methanol, 7mm disc, 24-48 hours at 25-37° C., read-out: Size of Zone of Inhibition

CCCCCCCCCOc1ccc(C(=O)N[C@H]2C[C@@H](O)[C@@H](O)NC(=O)[C@@H]3[C@@H](O)[C@@H](C)CN3C(=O)[C@H]([C@@H](C)O)NC(=O)[C@H]([C@H](O)[C@@H](O)c3ccc(O)cc3)NC(=O)[C@@H]3C[C@@H](O)CN3C(=O)[C@H]([C@@H](C)O)NC2=O)cc1 (X8-[Orn(4R-OH,5R-OH)]T[Hyp][hTyr(3S-OH,4S-OH)]T[Pro(3S-OH,4S-Me)]; lactam 1-C)
MIC (Candida albicans A-26 [1]; A26): 0.312 µg/mL (≈ 0.299 µM) | MIC (Candida albicans SBH16; SBH16): 0.312 µg/mL (≈ 0.299 µM) | MIC (Candida albicans SBH28; SBH28): 0.312 µg/mL (≈ 0.299 µM) | MIC (Candida albicans SBH29; SBH29): 0.312 µg/mL (≈ 0.299 µM) | MIC (Candida albicans SBH31; SBH31): 0.312 µg/mL (≈ 0.299 µM)

C[C@@H](O)[C@@H]1NC(=O)[C@H]([C@H](O)[C@@H](O)c2ccc(O)cc2)NC(=O)[C@@H]2C[C@@H](O)CN2C(=O)[C@H]([C@@H](C)O)NC(=O)[C@@H](N)C[C@@H](O)[C@@H](O)NC(=O)[C@@H]2[C@@H](O)[C@@H](C)CN2C1=O [A-30912A nucleus] (H-[Orn(4R-OH,5R-OH)]T[Hyp][hTyr(3S-OH,4S-OH)]T[Pro(3S-OH,4S-Me)]; lactam 1-C)
antifungal activity (pathogenic fungi): substantially devoid of antifungal activity

CCCCCCCCOc1ccc(C(=O)N[C@H]2C[C@@H](O)[C@@H](O)NC(=O)[C@@H]3[C@@H](O)[C@@H](C)CN3C(=O)[C@H]([C@@H](C)O)NC(=O)[C@H]([C@H](O)[C@@H](O)c3ccc(O)cc3)NC(=O)[C@@H]3C[C@@H](O)CN3C(=O)[C@H]([C@@H](C)O)NC2=O)cc1 [drawing 108] ({Benzoyl(4-octyloxy)}-[Orn(4R-OH,5R-OH)]T[Hyp][hTyr(3S-OH,4S-OH)]T[Pro(3S-OH,4S-Me)]; lactam 1-C)
zone of inhibition at 1000 µg/mL [2, 7]: 18 mm | Size of Zone of Inhibition (Candida albicans A-26 [3]): 28 mm | zone of inhibition at 1000 µg/mL (Neurospora crassa 846; Neurospora crassa, 846, read-out: Size of Zone of Inhibition): 23 mm

CCCCCCCCCCS(=O)(=O)c1ccc(C(=O)N[C@H]2C[C@@H](O)[C@@H](O)NC(=O)[C@@H]3[C@@H](O)[C@@H](C)CN3C(=O)[C@H]([C@@H](C)O)NC(=O)[C@H]([C@H](O)[C@@H](O)c3ccc(O)cc3)NC(=O)[C@@H]3C[C@@H](O)CN3C(=O)[C@H]([C@@H](C)O)NC2=O)cc1 [drawing 112] (X4-[Orn(4R-OH,5R-OH)]T[Hyp][hTyr(3S-OH,4S-OH)]T[Pro(3S-OH,4S-Me)]; lactam 1-C)
zone of inhibition at 1000 µg/mL [2, 7]: 16 mm | Size of Zone of Inhibition (Candida albicans A-26 [3]): 55 mm | zone of inhibition at 1000 µg/mL (Neurospora crassa 846; [8]): 31 mm | zone of inhibition at 1000 µg/mL [4, 9]: 32 mm

CCCCCCCCCCCCS(=O)(=O)c1ccc(C(=O)N[C@H]2C[C@@H](O)[C@@H](O)NC(=O)[C@@H]3[C@@H](O)[C@@H](C)CN3C(=O)[C@H]([C@@H](C)O)NC(=O)[C@H]([C@H](O)[C@@H](O)c3ccc(O)cc3)NC(=O)[C@@H]3C[C@@H](O)CN3C(=O)[C@H]([C@@H](C)O)NC2=O)cc1 [drawing 113] (X5-[Orn(4R-OH,5R-OH)]T[Hyp][hTyr(3S-OH,4S-OH)]T[Pro(3S-OH,4S-Me)]; lactam 1-C)
Size of Zone of Inhibition (Candida albicans A-26 [3]): 48 mm | zone of inhibition at 1000 µg/mL (Neurospora crassa 846; [8]): 37 mm | zone of inhibition at 1000 µg/mL [4, 9]: 26 mm

CCCCCCCCCCCCCCS(=O)(=O)c1ccc(C(=O)N[C@H]2C[C@@H](O)[C@@H](O)NC(=O)[C@@H]3[C@@H](O)[C@@H](C)CN3C(=O)[C@H]([C@@H](C)O)NC(=O)[C@H]([C@H](O)[C@@H](O)c3ccc(O)cc3)NC(=O)[C@@H]3C[C@@H](O)CN3C(=O)[C@H]([C@@H](C)O)NC2=O)cc1 [drawing 114] (X2-[Orn(4R-OH,5R-OH)]T[Hyp][hTyr(3S-OH,4S-OH)]T[Pro(3S-OH,4S-Me)]; lactam 1-C)
zone of inhibition at 1000 µg/mL ([2]; X52, read-out: Size of Zone of Inhibition): 23 mm | Size of Zone of Inhibition (Candida albicans A-26 [3]): 30 mm | zone of inhibition at 1000 µg/mL (Neurospora crassa 846; [8]): 29 mm | zone of inhibition at 1000 µg/mL ([4]; A23, read-out: Size of Zone of Inhibition): 23 mm

CCCCCCCCCCCCSc1ccc(C(=O)N[C@H]2C[C@@H](O)[C@@H](O)NC(=O)[C@@H]3[C@@H](O)[C@@H](C)CN3C(=O)[C@H]([C@@H](C)O)NC(=O)[C@H]([C@H](O)[C@@H](O)c3ccc(O)cc3)NC(=O)[C@@H]3C[C@@H](O)CN3C(=O)[C@H]([C@@H](C)O)NC2=O)cc1 [drawing 149] (X1-[Orn(4R-OH,5R-OH)]T[Hyp][hTyr(3S-OH,4S-OH)]T[Pro(3S-OH,4S-Me)]; lactam 1-C)
MIC (Candida albicans A-26 [1]; A26): 0.625 µg/mL (≈ 0.567 µM) | MIC (Candida albicans SBH16; SBH16): 0.625 µg/mL (≈ 0.567 µM) | MIC (Candida albicans SBH28; SBH28): 0.625 µg/mL (≈ 0.567 µM) | MIC (Candida albicans SBH29; SBH29): 0.625 µg/mL (≈ 0.567 µM) | MIC (Candida albicans SBH31; SBH31): 0.625 µg/mL (≈ 0.567 µM)

CCCCCCCCCCCCCCSc1ccc(C(=O)N[C@H]2C[C@@H](O)[C@@H](O)NC(=O)[C@@H]3[C@@H](O)[C@@H](C)CN3C(=O)[C@H]([C@@H](C)O)NC(=O)[C@H]([C@H](O)[C@@H](O)c3ccc(O)cc3)NC(=O)[C@@H]3C[C@@H](O)CN3C(=O)[C@H]([C@@H](C)O)NC2=O)cc1 [drawing 150] (X3-[Orn(4R-OH,5R-OH)]T[Hyp][hTyr(3S-OH,4S-OH)]T[Pro(3S-OH,4S-Me)]; lactam 1-C)
MIC (Candida albicans A-26 [1]; A26, strain A-26, agar dilution, read-out: MIC): 2.5 µg/mL (≈ 2.21 µM) | MIC (Candida albicans SBH16; strain SBH16, agar dilution, read-out: MIC): 2.5 µg/mL (≈ 2.21 µM) | MIC (Candida albicans SBH28; strain SBH28, agar dilution, read-out: MIC): 2.5 µg/mL (≈ 2.21 µM) | MIC (Candida albicans SBH29; strain SBH29, agar dilution, read-out: MIC): 2.5 µg/mL (≈ 2.21 µM) | MIC (Candida albicans SBH31; strain SBH31, agar dilution, read-out: MIC): 2.5 µg/mL (≈ 2.21 µM)

CCCCCCCCOc1ccc(C(=O)N[C@H]2C[C@@H](O)[C@@H](O)NC(=O)[C@@H]3[C@@H](O)[C@@H](C)CN3C(=O)[C@H]([C@@H](C)O)NC(=O)[C@H]([C@H](O)[C@@H](O)c3ccc(O)cc3)NC(=O)[C@@H]3C[C@@H](O)CN3C(=O)[C@H]([C@@H](C)O)NC2=O)cc1 [drawing 181] ({Benzoyl(4-octyloxy)}-[Orn(4R-OH,5R-OH)]T[Hyp][hTyr(3S-OH,4S-OH)]T[Pro(3S-OH,4S-Me)]; lactam 1-C)
Cmax [5]: 23000 ng/mL

CCCCCCCCCCCCSc1ccc(C(=O)N[C@H]2C[C@@H](O)[C@@H](O)NC(=O)[C@@H]3[C@@H](O)[C@@H](C)CN3C(=O)[C@H]([C@@H](C)O)NC(=O)[C@H]([C@H](O)[C@@H](O)c3ccc(O)cc3)NC(=O)[C@@H]3C[C@@H](O)CN3C(=O)[C@H]([C@@H](C)O)NC2=O)cc1 [drawing 187] (X1-[Orn(4R-OH,5R-OH)]T[Hyp][hTyr(3S-OH,4S-OH)]T[Pro(3S-OH,4S-Me)]; lactam 1-C)
Cmax (in vivo): 30000 ng/mL

CCCCCCCCCCCCCCSc1ccc(C(=O)N[C@H]2C[C@@H](O)[C@@H](O)NC(=O)[C@@H]3[C@@H](O)[C@@H](C)CN3C(=O)[C@H]([C@@H](C)O)NC(=O)[C@H]([C@H](O)[C@@H](O)c3ccc(O)cc3)NC(=O)[C@@H]3C[C@@H](O)CN3C(=O)[C@H]([C@@H](C)O)NC2=O)cc1 [drawing 188] (X3-[Orn(4R-OH,5R-OH)]T[Hyp][hTyr(3S-OH,4S-OH)]T[Pro(3S-OH,4S-Me)]; lactam 1-C)
Cmax (in vivo): 230000 ng/mL

CCCCCCCCOc1ccc(C(=O)N[C@H]2C[C@@H](O)[C@@H](O)NC(=O)[C@@H]3[C@@H](O)[C@@H](C)CN3C(=O)[C@H]([C@@H](C)O)NC(=O)[C@H]([C@H](O)[C@@H](O)c3ccc(O)cc3)NC(=O)[C@@H]3C[C@@H](O)CN3C(=O)[C@H]([C@@H](C)O)NC2=O)cc1 [p-(n-octyloxy)benzoyl derivative of A-30912A nucleus] ({Benzoyl(4-octyloxy)}-[Orn(4R-OH,5R-OH)]T[Hyp][hTyr(3S-OH,4S-OH)]T[Pro(3S-OH,4S-Me)]; lactam 1-C)
SGPT levels [6]: increased SGPT levels were observed | outward signs of toxicity [6]: no outward signs of toxicity
